Reference: the Kinase Knowledgebase extract (Sharma et al. 2016)

Target: MAPK14;MAPK11;MAPK12 (human) (UniProt Q16539)
Test: Inhibition of p38 Kinase Activity

Q: For COc1ccccc1NC(=O)c1ccc(C)c(Nc2nc(N[C@H]3CCNC3)nc(N(C)CC(C)(C)C)n2)c1, which IC50 is on record?
A: < 1000 nM

Q: How did the IC50 turn out when Cc1ccc(C(N)=O)cc1Nc1nc(N[C@H]2CCN(Cc3ccccc3)C2)nc(N(C)CC(C)(C)C)n1 was run?
A: < 1000 nM

Q: How did the IC50 turn out when CNC(=O)c1ccc(C)c(Oc2nc(N[C@@H]3CCNC3)nc(N(C)CC(C)(C)C)n2)c1 was run?
A: < 30000 nM

Q: Cc1ccc(C(N)=O)cc1Nc1nc(N[C@@H]2CCNC2)nc(N(C)CC2(C)CCCC2)n1 was tested. Which IC50 did it give?
A: < 1000 nM

Q: How did the IC50 turn out when CCNC(=O)N1CCN(c2nc(NCC(C)c3ccccc3)nc(Nc3ccc4ncsc4c3)n2)CC1 (stereo not given) was run?
A: < 10000 nM

Q: Which IC50 does the source give for Cc1ccc(COC(=O)C(F)(F)F)cc1Nc1nc(N[C@H]2CCNC2)nc(N(C)CC(C)C)n1 here?
A: < 1000 nM

Q: Which IC50 does the source give for Cc1ccc(C(=O)NCCc2ccccc2)cc1Nc1nc(N[C@H]2CCNC2)nc(N(C)CC(C)(C)C)n1 here?
A: < 1000 nM

Q: How did the IC50 turn out when COCC(C)N1CC[C@@H](Nc2nc(Nc3cc(C(N)=O)ccc3C)nc(N(C)CC(C)(C)C)n2)C1 (stereo not given in full) was run?
A: < 1000 nM

Q: For CONC(=O)c1ccc(C)c(Nc2nc(N(C)CC(C)(C)C)nc(N3CCCCC3)n2)c1, which IC50 is on record?
A: < 1000 nM

Q: CC(CNc1nc(Nc2ccc3ncsc3c2)nc(N2CC3CC2CN3C(=N)N)n1)c1ccccc1 (stereo not given) was tested. Which IC50 did it give?
A: < 10000 nM

Q: For CCCC1(C)CCN(c2nc(Nc3cc(C(N)=O)ccc3C)nc(N[C@@H]3CCNC3)n2)C1 (stereo not given in full), which IC50 is on record?
A: < 1000 nM

Q: For CNc1nc(NCc2ccc(F)cc2F)nc(Nc2ccc3ncsc3c2)n1, which IC50 is on record?
A: < 10000 nM

Q: How did the IC50 turn out when COC(=O)CC(CNc1nc(Cl)nc(Nc2ccc3ncsc3c2)n1)c1ccc(Cl)cc1 (stereo not given) was run?
A: < 10000 nM

Q: Cc1ccc(C(N)=O)cc1Nc1nc(N[C@H]2CCN(Cc3ccc(C(C)C)cc3)C2)nc(N(C)CC(C)C)n1 was tested. Which IC50 did it give?
A: < 1000 nM

Q: How did the IC50 turn out when CC(CCCCCCN(C)c1nc(NCC(C)c2ccccc2)nc(Nc2ccc3ncsc3c2)n1)C(N)=O (stereo not given) was run?
A: < 10000 nM

Q: Which IC50 does the source give for Cc1ccc(C(N)=O)cc1Oc1nc(N[C@@H]2CCNC2)nc(N(C)CC(C)(C)C)n1 here?
A: < 30000 nM

Q: How did the IC50 turn out when CCCCC(C)c1nc(Nc2cc(C(N)=O)ccc2C)nc(N[C@H]2CCNC2)n1 (stereo not given in full) was run?
A: < 1000 nM

Q: Cc1ccc(C(=O)Nc2ccccn2)cc1Nc1nc(N[C@H]2CCNC2)nc(N(C)CC(C)C)n1 was tested. Which IC50 did it give?
A: < 1000 nM

Q: With CC(C)OCCNc1cc(N2CCNCC2)nc(-n2cnc3ccccc32)n1 as the compound, how does the IC50 read?
A: < 10000 nM

Q: With Cc1ccc(C(N)=O)cc1Nc1nc(N[C@H]2CCN(C(=O)c3ccccn3)C2)nc(N(C)CC(C)C)n1 as the compound, how does the IC50 read?
A: < 1000 nM

Q: How did the IC50 turn out when Cc1ccc(C(N)=O)cc1Nc1nc(N[C@@H]2CCNC2)nc(-c2cccc(Cl)c2)n1 was run?
A: < 1000 nM

Q: With Cc1ccccc1NC(=S)N1CCN(c2nc(NCC(C)c3ccccc3)nc(Nc3ccc4ncsc4c3)n2)CC1 (stereo not given) as the compound, how does the IC50 read?
A: < 10000 nM

Q: Cc1ccc(C(N)=O)cc1Nc1nc(NCCCn2ccnc2)nc(NC2CCCC2)n1 was tested. Which IC50 did it give?
A: < 1000 nM

Q: With Cc1ccc(C(N)=O)cc1Nc1nc(NCCc2ccc(F)cc2)nc(N[C@H]2CCNC2)n1 as the compound, how does the IC50 read?
A: < 1000 nM

Q: With CC1(C)[C@H]2CC[C@@H](CNc3nc(N4CCCNCC4)nc(N4CCc5ccc([N+](=O)[O-])cc54)n3)[C@@H]1C2 as the compound, how does the IC50 read?
A: < 1000 nM

Q: Which IC50 does the source give for Clc1cccc(Nc2nc(Cl)nc(Nc3ccc4ncsc4c3)n2)c1 here?
A: < 10000 nM

Q: For Cc1ccc(C(N)=O)cc1Nc1nc(N[C@@H]2CCN(C(C)CC(C)C)C2)nc(N(C)CC(C)(C)C)n1 (stereo not given in full), which IC50 is on record?
A: < 1000 nM

Q: Which IC50 does the source give for CCC(C)N1CC[C@@H](Nc2nc(Nc3cc(C(N)=O)ccc3C)nc(N(C)CC(C)C)n2)C1 (stereo not given in full) here?
A: < 1000 nM

Q: CC(=O)N(C)CCCN(C)c1nc(NCC(C)c2ccccc2)nc(Nc2ccc3ncsc3c2)n1 (stereo not given) was tested. Which IC50 did it give?
A: < 10000 nM

Q: Which IC50 does the source give for CNCCN(C)c1nc(NCC(C)c2ccccc2)nc(Nc2ccc3nc(C)sc3c2)n1 (stereo not given) here?
A: < 10000 nM

Q: For CCONC(=O)c1ccc(C)c(Nc2nc(NCCO)nc(N(C)CC(C)(C)C)n2)c1, which IC50 is on record?
A: < 1000 nM

Q: Which IC50 does the source give for Cc1ccc(C(N)=O)cc1Nc1nc(N)nc(NC[C@@H]2CC[C@H]3C[C@@H]2C3(C)C)n1 here?
A: < 1000 nM

Q: Which IC50 does the source give for Cc1c(Cl)cc(C(N)=O)cc1Nc1nc(N[C@H]2CCNC2)nc(N(C)CC(C)(C)C)n1 here?
A: < 1000 nM

Q: CONC(=O)c1ccc(C)c(Nc2nc(N)nc(N(C)CC(C)(C)C)n2)c1 was tested. Which IC50 did it give?
A: < 1000 nM

Q: CONC(=O)c1ccc(F)c(Sc2nc(N(C)CC(C)(C)C)nc(N3CCCN(C)CC3)n2)c1 was tested. Which IC50 did it give?
A: < 30000 nM

Q: Which IC50 does the source give for CONC(=O)c1ccc(C)c(Oc2nc(NCc3ccccn3)nc(N(C)CC(C)(C)C)n2)c1 here?
A: < 30000 nM

Q: Cc1ccc(C(N)=O)cc1Nc1nc(N[C@H]2CONC2=O)nc(N(C)CC(C)(C)C)n1 was tested. Which IC50 did it give?
A: < 1000 nM

Q: For Cc1ccc(C(N)=O)cc1Nc1nc(N[C@H]2CCN(C3CCCC3)C2)nc(N(C)CC(C)(C)C)n1, which IC50 is on record?
A: < 1000 nM

Q: How did the IC50 turn out when Cc1ccc(C(N)=O)cc1Nc1nc(O)nc(NCC(C)c2ccccc2)n1 (stereo not given) was run?
A: < 1000 nM

Q: For Cc1ccc(C(N)=O)cc1Nc1nc(N[C@H]2CCN(C(C#N)c3ccccc3)C2)nc(N(C)CC(C)C)n1 (stereo not given in full), which IC50 is on record?
A: < 1000 nM

Q: Cc1ccc(C(N)=O)cc1Nc1nc(N[C@@H]2CCN(C(C)C(F)(F)F)C2)nc(N(C)CC(C)(C)C)n1 (stereo not given in full) was tested. Which IC50 did it give?
A: < 1000 nM

Q: For O=S(=O)(Nc1ncccn1)c1ccc(Nc2nc(Cl)nc(NCCc3ccccc3)n2)cc1, which IC50 is on record?
A: < 10000 nM

Q: How did the IC50 turn out when Cc1ccc(C(N)=O)cc1Nc1nc(N[C@H]2CCN(Cc3cccc(C#N)c3)C2)nc(N(C)CC(C)C)n1 was run?
A: < 1000 nM

Q: Which IC50 does the source give for Cc1ccc(C(N)=O)cc1Nc1nc(NCC23CC4CC(CC(C4)C2)C3)nc(N[C@@H]2CCNC2)n1 here?
A: < 1000 nM

Q: How did the IC50 turn out when COCCCN1CCC(Nc2nc(Nc3cc(C(N)=O)ccc3C)nc(N(C)CC(C)C)n2)C1 (stereo not given) was run?
A: < 1000 nM

Q: Cc1ccc(C(N)=O)cc1Nc1nc(N[C@H]2CCN(Cc3ccc(Cl)cc3)C2)nc(N(C)CC(C)C)n1 was tested. Which IC50 did it give?
A: < 1000 nM

Q: How did the IC50 turn out when CCCCN(C)c1nc(Nc2cc(C(N)=O)ccc2C)nc(N[C@H]2CCNC2)n1 was run?
A: < 1000 nM

Q: Which IC50 does the source give for COC1CCCC(C(=O)N2CCN(c3nc(NCC(C)c4ccccc4)nc(Nc4ccc5ncsc5c4)n3)CC2)C1 (stereo not given) here?
A: < 10000 nM

Q: With c1nc2ccc(Nc3nc(N4CCNCC4)nc(N4CCC5CCCCC5C4)n3)cc2s1 (stereo not given) as the compound, how does the IC50 read?
A: < 10000 nM

Q: With CC(CNc1nc(Nc2ccc3ncsc3c2)nc(N(C)C)n1)c1ccccc1 (stereo not given) as the compound, how does the IC50 read?
A: < 10000 nM

Q: Which IC50 does the source give for Cc1c(Nc2nc(Cl)nc(NCC(C)c3ccccc3)n2)ccc2ncsc12 (stereo not given) here?
A: < 10000 nM

Q: For Cc1ccc(C(N)=O)cc1Nc1nc(NC[C@@H]2CC[C@H]3C[C@H]2C3(C)C)nc(NC2CCNCC2)n1, which IC50 is on record?
A: < 1000 nM

Q: For Nc1nc(NCCc2ccccc2)nc(Nc2ccc(S(=O)(=O)Nc3ncccn3)cc2)n1, which IC50 is on record?
A: < 10000 nM

Q: How did the IC50 turn out when Cc1ccc(C(N)=O)cc1Nc1nc(NC2CCCC2)nc(NC2CCN(Cc3ccccc3)C2)n1 (stereo not given) was run?
A: < 1000 nM

Q: For CC1(C)[C@H]2CC[C@H](CNc3nc(Nc4ccc5ncsc5c4)nc(N4CCNCC4)n3)[C@@H]1C2, which IC50 is on record?
A: < 10000 nM

Q: For Cc1ccc(C(=O)NC#N)cc1Nc1nc(N[C@H]2CCNC2)nc(N(C)CC(C)(C)C)n1, which IC50 is on record?
A: < 1000 nM

Q: How did the IC50 turn out when Cc1ccc(C(N)=O)cc1Nc1nc(N[C@H]2CCN(Cc3cccc4c3OCO4)C2)nc(N(C)CC(C)C)n1 was run?
A: < 1000 nM

Q: Which IC50 does the source give for CNCCN(C)c1nc(NC[C@@H](C)c2ccccc2)nc(Nc2ccc3ncsc3c2)n1 here?
A: < 10000 nM

Q: How did the IC50 turn out when COCC(=O)N1CCN(c2nc(NCC(C)c3ccccc3)nc(Nc3ccc4ncsc4c3)n2)CC1 (stereo not given) was run?
A: < 10000 nM

Q: Cc1ccccc1CN1CC[C@H](Nc2nc(Nc3cc(C(N)=O)ccc3C)nc(N(C)CC(C)C)n2)C1 was tested. Which IC50 did it give?
A: < 1000 nM

Q: With COCCN1CCC(Nc2nc(Nc3cc(C(N)=O)ccc3C)nc(N(C)CC(C)C)n2)C1 (stereo not given) as the compound, how does the IC50 read?
A: < 1000 nM

Q: Cc1ccc(C(N)=O)cc1Nc1nc(NC[C@@H]2CC[C@H]3C[C@H]2C3(C)C)nc(N[C@H]2CCNC2)n1 was tested. Which IC50 did it give?
A: < 1000 nM

Q: For Cc1ccc(C(N)=O)cc1Nc1nc(CC2CCCC2)nc(Nc2ccncc2)n1, which IC50 is on record?
A: < 1000 nM

Q: For O=C(O)CCC(=O)N1CCN(c2nc(NCC3CCCCC3)nc(Nc3ccc4ncsc4c3)n2)CC1, which IC50 is on record?
A: < 10000 nM

Q: With CN(CC1CCC2CC1C2(C)C)c1nc(Nc2ccc3ncsc3c2)nc(N2CCN(S(C)(=O)=O)CC2)n1 (stereo not given) as the compound, how does the IC50 read?
A: < 10000 nM
